Results as given in US9023758B2, “Methods for promoting plant health” (University of Delaware, priority 2009, dated 2015).

Tests used:
B. subtilis strain FB17 = experiment: capillary chemotaxis assay; assay type: cell-based, Bacillus subtilis
Procedure: (§1) To evaluate MA's ability to selectively recruit FB17, microbial motility at varying MA doses was measured by capillary chemotaxis assay (Gordillo et al., 2007). […] The concentration range of 5 to 30 μM falls within the biological titers of MA secreted in planta through the root exudates. […] To establish whether L-MA specifically chemoattracts FB17, other beneficial bacteria, such as Pseudomonas fluorescens strain Pf01 and Azospirillum brasilense strain Cd, and pathogenic bacteria, such as Pst DC3000, Erwinia carotovora strain AH2, Agrobacterium rhizogenes strain Arqua-1, and Agrobacterium tumefaciens strain LBA4404, were assayed for MA. […] Bacterial strains used in the chemotactic assay included B. subtilis strain FB17, A. tumefaciens strain LBA4404, E. carotovora strain AH2, A. rhizogenes strain Arqua-1, A. brasilense strain Cd, P. fluorescens (Pf01), and P. syringae (Pst DC3000). Data are the average of six replicates from two experiments conducted separately.

yqxM operon = assay type: cell-based, B. subtilis strain Marburg
[1] = tested on: Agrobacterium rhizogenes strain Arqua-1; experiment: capillary chemotaxis assay; assay type: cell-based
Procedure: as §1

[2] = tested on: Erwinia carotovora strain AH2; experiment: capillary chemotaxis assay; assay type: cell-based
Procedure: as §1

[3] = tested on: Agrobacterium tumefaciens strain LBA4404; experiment: capillary chemotaxis assay; assay type: cell-based
Procedure: as §1

[4] = tested on: Azospirillum brasilense strain Cd; experiment: capillary chemotaxis assay; assay type: cell-based
Procedure: as §1

[5] = tested on: Pseudomonas fluorescens strain Pf01; experiment: capillary chemotaxis assay; assay type: cell-based
Procedure: as §1

Pst DC3000 = experiment: capillary chemotaxis assay; assay type: cell-based, Pseudomonas syringae pv tomato
Procedure: as §1

PR1::GUS = PR1::GUS reporter expression in Arabidopsis
DC3000 = experiment: acetoin treatment of Arabidopsis plants leaf inoculated with DC3000
free SA = free SA levels in Arabidopsis leaves; settings: compared to control untreated plants
[6] = tested on: PDF1.2 and PR1 transcripts; experiment: RT-PCR of defense genes PDF1.2 and PR1; assay type: in vivo, Arabidopsis thaliana; settings: leaves, compared to mock inoculated plants
Excerpt: To further confirm that a FB17 component, acetoin, mediates this response we analyzed the defense genes PDF1.2 and Jin1 whose expression depends on functional ET and JA pathways.

## O=C(O)C[C@@H](O)C(=O)O [D-MA]
B. subtilis strain FB17; 30 μM
  chemotactic efficacy compared to the natural L-MA form: lower efficacies
  chemotaxis compared to water control: significantly higher than the water control
yqxM operon
  expression of biofilm operon yqxM (β-galactosidase activity): did not stimulate β-galactosidase activity

## O=C(O)C[C@H](O)C(=O)O [L-MA, L-malic acid]
B. subtilis strain FB17; dose range of 5 to 30 μM
  chemotactic behavior of FB17: positive chemotactic behavior in a concentration-dependent manner
[1]
  motility toward L-MA compared to FB17: none of the bacteria shows any significant motility
[2]
  motility toward L-MA compared to FB17: none of the bacteria shows any significant motility
[3]
  motility toward L-MA compared to FB17: none of the bacteria shows any significant motility
[4]
  motility toward L-MA compared to FB17: none of the bacteria shows any significant motility
[5]
  motility toward L-MA compared to FB17: none of the bacteria shows any significant motility
yqxM operon
  expression of biofilm operon yqxM (β-galactosidase activity): elevated expression
  β-galactosidase activity level and kinetics compared to root exudates: activity level was lower and the kinetics response was abbreviated
Pst DC3000
  motility toward L-MA compared to FB17: none of the bacteria shows any significant motility

## O=C(O)c1ccccc1O [SA]
PR1::GUS; leaves sprayed
  PR1 expression: higher PR1 expression
PR1::GUS; root treated plants
  PR1 expression: much less PR1 expression

## CC(=O)C(C)O (stereo not drawn) [acetoin, 3-hydroxy-2-butanone]
DC3000; Arabidopsis, ratio of leaves with symptoms to leaves inoculated, vs untreated
  percent disease incidence: significantly lower
DC3000; Arabidopsis, volatile treatment, 5 days post-infection, compared to untreated controls
  disease symptoms: significantly lower disease symptoms
DC3000; Arabidopsis, vs untreated, P<0.05
  DC3000 CFUs from leaves: lower DC3000 CFUs
DC3000; SA deficient NahG plants
  protection from DC3000 infection: failed to protect
DC3000; ethylene mutant etr1-3 plants
  protection from DC3000 infection: failed to protect
DC3000; jasmonic acid mutant Jar1-1
  DC3000 multiplication in terms of CFUs: significantly reduction in DC3000 multiplication
DC3000; wild type Col-0
  DC3000 multiplication in terms of CFUs: significantly reduction in DC3000 multiplication
PR1::GUS; treated or root inoculated plants compared to untreated plants
  PR1::GUS expression: enhanced PR1 expression
Free SA
  free SA levels: enhances the total free SA level
[6]
  PDF1.2 transcripts: more
  PR1 transcripts: more

## O=C(O)C(=O)O [oxalic acid, reference compound]
B. subtilis strain FB17; 30 μM
  chemotactic efficacy compared to the natural L-MA form: lower efficacies
yqxM operon
  expression of biofilm operon yqxM (β-galactosidase activity): did not stimulate β-galactosidase activity
